According to EP0044212B1, “Herbicidal o-alkylsulfonyloxy- and o-alkylsulfonylamino-benzenesulfonamides” (E.I. DU PONT DE NEMOURS AND COMPANY, priority 1980, dated 1982):

Columns and labels:
Grasses = assay: Test C pre-emergence on Fallsington silt loam soil; type: in vivo, johnsongrass, barnyardgrass, crabgrass, giant foxtail; conditions: 28 days
Text: (§1) The high herbicidal activity of two of the compounds from within the scope of the invention is evident from the results obtained in this test. The experiment concerned pre-emergence applications on soil. The containers used were 25 cm diameter plastic pots filled with Fallsington silt loam. One set of pots was planted to weeds, the seeds of which were uniformly mixed with the top 1.2 cm layer of soil. The species selected were: johnsongrass (Sorghum halepense), barnyardgrass (Echinochloa crusgalli), crabgrass (Digitaria sanguinalis), giant foxtail (Setaria faberii), velvetleaf (Abutilon theophrasti), jimsonweed (Datura stramonium), mustard (Brassica arvensis), and pigweed (Amaranthus retroflexus). Another set of pots were planted to the following crops with from one to four species per pot: corn (planting depth 3.7 cm), cotton, soybeans, sunflower, Clinton oats, wheat, Black Valentine beans, rice, sorghum, peas, flax, and peanuts (all at 2.5 cm depth), cucumbers, cabbage, alfalfa, safflower, sugarbeets, tomato, spinach, barley, and Kentucky bluegrass (all at 1.2 cm depth). Immediately after planting, the test chemical was applied to the soil surfaces dissolved in a non-phytotoxic solvent. One pot from the weed phase and one of each of the crop species were left untreated for the purpose of comparison. The treated and untreated pots were promptly watered with approximatley 4 mm of simultated rainfall and then held in a greenhouse for several weeks. Visual weed and crop response ratings were made 28 days after treatment utilizing the rating system as described above for Test A. The data are given in Table C.

Peanut = assay: Test C pre-emergence on Fallsington silt loam soil; type: in vivo, peanuts; conditions: 0.03 kg/ha, 28 days
Text: as §1, with “The treated and untreated pots were promptly watered with approximatley 4 mm of simultated rainfall and then held in a greenhouse for several weeks. Visual weed and crop response ratings were made 28 days after treatment utilizing the rating system as described above for Test A. The data are given in Table C.” left out

Wheat [1] = assay: Test C pre-emergence on Fallsington silt loam soil; type: in vivo; conditions: 0.03 kg/ha, 28 days
Text: as §1

Flax = assay: Test C pre-emergence on Fallsington silt loam soil; type: in vivo; conditions: 0.03 kg/ha, 28 days
Text: as §1

Broadleaves = assay: Test C pre-emergence on Fallsington silt loam soil; type: in vivo, velvetleaf, jimsonweed, mustard, pigweed; conditions: 28 days
Text: as §1, with “The treated and untreated pots were promptly watered with approximatley 4 mm of simultated rainfall and then held in a greenhouse for several weeks. Visual weed and crop response ratings were made 28 days after treatment utilizing the rating system as described above for Test A. The data are given in Table C.” left out

Soybeans = assay: Test F over-the-top soil/foliage treatment; type: in vivo; conditions: for Soybeans response rating: soil/foliage spray, ~14 days
How it was run: (§2)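 Seed in sandy loam (Woodstown), grow in greenhouse. Spray compound, dissolved in a non-phytotoxic solvent, over plants and soil at ~14 days after planting. Score response visually versus untreated controls after ~14 days.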

Rice = assay: Test F over-the-top soil/foliage treatment; type: in vivo; conditions: soil/foliage spray, ~14 days
How it was run: as §2

soybeams = assay: Crop selectivity statement (greenhouse tests); type: in vivo; conditions: summary statement
Text: (§3) The activity of the compounds of formula I was investigated in a number of greenhouse tests.

Ripgut Brome = assay: Test D pre-/post-emergence weed control in cereals; type: in vivo, Bromus rigidus; conditions: 20 days
Text: (§4) Two ten-inch in diameter plastic pans lined with polyethylene liners were filled with prepared Fallsington slit loam soil. One pan was planted with seeds of wheat (Triticum aestivum), barley (Hordeum vulgarel, wild oats (Avena fatua), downy brome (Bromus tectorum), cheatgrass (Bromus secalinus), blackgrass (Alopecurus myosuroides), annual bluegrass (Poa annual, green foxtail (Setaria viridis), quack grass (Agropyron repens), Italian ryegrass (Lolium multiflorum) and ripgut brome (Bromus rigidus). The other pan was planted with seeds of Russian thistle (Salsola kali), tansy mustard (Descuraina pinnata), smartweed (Polygonum pensylvanicum), tumble mustard (Sisymbrium altissium) kochia (Kochia scoparia), shepherd's purse (Capsella bursa-pastoris), Matricaria inodora, black nightshade (Solanum nigrum), yellow rocket (Barbarea vulgaris), wild mustard (Brassica kaber) and wild buckwheat (Polygonum convolvulus). The above two pans were treated pre-emergence. At the same time two pans in which the above plant species were growing were treated post-emergence. Plant height at the time of treatment ranged from 1-15 cm depending on plant species.
(§5) The compounds applied were diluted with a non-phytotoxic solvent and sprayed over-the-top of the pans. An untreated control and a solvent alone control were included for comparison. All treatments were maintained in the greenhouse for 20 days at which time the treatments were compared to the controls and the effects visually rated. The recorded data, presented in Table D, indicate that certain compounds from within the scope of the invention have utility for pre- and/or post-emergence weed control in cereal crops such as wheat and barley.

Wild Buckwheat = assay: Test D pre-/post-emergence weed control in cereals; type: in vivo, Polygonum convolvulus; conditions: Pre-Emergence; 0.015 kg/ha; 20 days
Text: as §4, with “Plant height at the time of treatment ranged from 1-15 cm depending on plant species.” left out
(§6) The compounds applied were diluted with a non-phytotoxic solvent and sprayed over-the-top of the pans. […] The recorded data, presented in Table D, indicate that certain compounds from within the scope of the invention have utility for pre- and/or post-emergence weed control in cereal crops such as wheat and barley.

Kochia = assay: Test D pre-/post-emergence weed control in cereals; type: in vivo, Kochia scoparia; conditions: 20 days
Text: as §4, §5

Black Nightshade = assay: Test D pre-/post-emergence weed control in cereals; type: in vivo, Solanum nigrum; conditions: 0.015 kg/ha, 20 days
Text: as §4, with “Plant height at the time of treatment ranged from 1-15 cm depending on plant species.” left out
as §6

Tansy Mustard = assay: Test D pre-/post-emergence weed control in cereals; type: in vivo, Descuraina pinnata; conditions: Pre-Emergence; 0.015 kg/ha; 20 days
Text: as §4, with “Plant height at the time of treatment ranged from 1-15 cm depending on plant species.” left out
as §6

Italian Ryegrass = assay: Test D pre-/post-emergence weed control in cereals; type: in vivo, Lolium multiflorum; conditions: 20 days
Text: as §4, §5

rice and corn = assay: Crop selectivity statement (greenhouse tests); type: in vivo; conditions: summary statement
Text: as §3

Wheat [2] = assay: Test D pre-/post-emergence weed control in cereals; type: in vivo, Triticum aestivum; conditions: 20 days
Text: as §4, §5

Russian Thistle = assay: Test D pre-/post-emergence weed control in cereals; type: in vivo, Salsola kali; conditions: 20 days
Text: as §4, §5

Cheatgrass = assay: Test D pre-/post-emergence weed control in cereals; type: in vivo, Bromus secalinus; conditions: 20 days
Text: as §4, §5

Quackgrass = assay: Test D pre-/post-emergence weed control in cereals; type: in vivo, Agropyron repens; conditions: 20 days
Text: as §4, §5

COc1cc(OC)nc(NC(=O)NS(=O)(=O)c2ccccc2OS(C)(=O)=O)n1 [Compound 1, N-[(4,6-Dimethoxypyrimidin-2-yl)aminocarbonyl]-2-hydroxybenzenesulfonamide, methanesulfonate]
Grasses response rating (Grasses; 0.0035 kg/ha): 0 | Grasses response rating (Grasses; 0.0075 kg/ha): 0 | Grasses response rating (Grasses; 0.015 kg/ha): 2G | Peanut response rating (Peanut): 6G | Wheat response rating (Wheat [1]): 2G | Flax response rating (Flax): 6G | Broadleaves response rating (Broadleaves; 0.0035 kg/ha): 3G | Broadleaves response rating (Broadleaves; 0.0075 kg/ha): 4G

CCCS(=O)(=O)Oc1ccccc1S(=O)(=O)NC(=O)Nc1nc(C)nc(OC)n1 [Compound 39, 2-hydroxy-N-[(4-methoxy-6-methyl-1,3,5-triazin-2-yl)aminocarbonyl]benzenesulfonamide, 1-propanesulfonate]
post-emergence control of weeds in soybeans (Soybeans; conclusion from Test F): has utility for the post-emergence control of weeds in soybeans | Soybeans response rating (Soybeans; 0.007 kg/ha): 0 | Soybeans response rating (Soybeans; 0.03 kg/ha): 4G | Rice response rating (Rice; 0.007 kg/ha): 2G | Rice response rating (Rice; 0.03 kg/ha): 4G | Rice response rating (Rice; 0.06 kg/ha): 0 | Rice response rating (Rice; 0.12 kg/ha): 0 | selectivity on soybeams (soybeams): shows selectivity on soybeams

CCCS(=O)(=O)Oc1ccccc1S(=O)(=O)NC(=O)Nc1nc(OC)cc(OC)n1 [Compound 36, N-[(4,6-dimethoxypropimidin-2-yl)aminocarbonyl]-2-hydroxybenzenesulfonamide, 1-propanesulfonate]
Ripgut Brome response rating (Ripgut Brome; Post-Emergence, 0.015 kg/ha): 0 | Ripgut Brome response rating (Ripgut Brome; Post-Emergence, 0.06 kg/ha): 2G | Ripgut Brome response rating (Ripgut Brome; Pre-Emergence, 0.015 kg/ha): 2G | Wild Buckwheat response rating (Wild Buckwheat): 3G | Kochia response rating (Kochia; Post-Emergence, 0.015 kg/ha): 0 | Kochia response rating (Kochia; Post-Emergence, 0.06 kg/ha): 0 | Kochia response rating (Kochia; Pre-Emergence, 0.015 kg/ha): 0 | Black Nightshade response rating (Black Nightshade; Post-Emergence): 2G | Black Nightshade response rating (Black Nightshade; Pre-Emergence): 4G | Tansy Mustard response rating (Tansy Mustard): 2G | Italian Ryegrass response rating (Italian Ryegrass; Post-Emergence, 0.015 kg/ha): 0 | Italian Ryegrass response rating (Italian Ryegrass; Post-Emergence, 0.06 kg/ha): 0 | Italian Ryegrass response rating (Italian Ryegrass; Pre-Emergence, 0.015 kg/ha): 1G | Italian Ryegrass response rating (Italian Ryegrass; Pre-Emergence, 0.06 kg/ha): 3G | selectivity on rice and corn (rice and corn): shows selectivity on rice and corn | Wheat response rating (Wheat [2]; Post-Emergence, 0.015 kg/ha): 0 | Wheat response rating (Wheat [2]; Post-Emergence, 0.06 kg/ha): 0 | Wheat response rating (Wheat [2]; Pre-Emergence, 0.015 kg/ha): 0 | Wheat response rating (Wheat [2]; Pre-Emergence, 0.06 kg/ha): 0 | Russian Thistle response rating (Russian Thistle; Post-Emergence, 0.015 kg/ha): 0 | Russian Thistle response rating (Russian Thistle; Post-Emergence, 0.06 kg/ha): 2G | Russian Thistle response rating (Russian Thistle; Pre-Emergence, 0.015 kg/ha): 0 | Russian Thistle response rating (Russian Thistle; Pre-Emergence, 0.06 kg/ha): 1G | Cheatgrass response rating (Cheatgrass; Post-Emergence, 0.015 kg/ha): 1G | Cheatgrass response rating (Cheatgrass; Pre-Emergence, 0.015 kg/ha): 7G | Cheatgrass response rating (Cheatgrass; Pre-Emergence, 0.06 kg/ha): 10C | Quackgrass response rating (Quackgrass; Post-Emergence, 0.015 kg/ha): 0 | Quackgrass response rating (Quackgrass; Post-Emergence, 0.06 kg/ha): 0 | Quackgrass response rating (Quackgrass; Pre-Emergence, 0.015 kg/ha): 0 | Quackgrass response rating (Quackgrass; Pre-Emergence, 0.06 kg/ha): 2G
